Experimental data: ChEMBL document CHEMBL1201862, “PubChem BioAssay data set” (2004)
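Dose response: 5 concentrations. Exposure: 48 h. Format: 96-well plates. Endpoint: linear interpolation; highest concentration if not reached. Abbreviation: GI50, concentration required for 50% inhibition of growth.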 Calls of active or inactive are those of the source. Rule as the data show it: active = GI50 up to about 1.1 µM and inactive = higher.

Tests used:
Experiment in all cases: DTP human tumour cell line panel, 48 h
MCF7 = tested on: MCF7
MDA-N = tested on: MDA-N
K562 = tested on: K562
SF-539 = tested on: SF-539
SK-OV-3 = tested on: SK-OV-3
SF-295 = tested on: SF-295
EKVX = tested on: EKVX
NCI-H460 = tested on: NCI-H460
SF-268 = tested on: SF-268
MDA-MB-435 = tested on: MDA-MB-435
SW-620 = tested on: SW-620
OVCAR-8 = tested on: OVCAR-8
SN12C = tested on: SN12C
BT-549 = tested on: BT-549
U-251 = tested on: U-251
MDA-MB-231 = tested on: MDA-MB-231
Malme-3M = tested on: Malme-3M
ACHN = tested on: ACHN
SNB-75 = tested on: SNB-75
MOLT-4 = tested on: MOLT-4
UACC-257 = tested on: UACC-257
SNB-19 = tested on: SNB-19
OVCAR-5 = tested on: OVCAR-5
UACC-62 = tested on: UACC-62
A549 = tested on: A549
CAKI-1 = tested on: CAKI-1
786-0 = tested on: 786-0
UO-31 = tested on: UO-31
NCI-H23 = tested on: NCI-H23
M14 = tested on: M14
COLO 205 = tested on: COLO 205
PC-3 = tested on: PC-3
HCT-116 = tested on: HCT-116
SK-MEL-28 = tested on: SK-MEL-28
HCC 2998 = tested on: HCC 2998
SK-MEL-2 = tested on: SK-MEL-2
HCT-15 = tested on: HCT-15
CCRF-CEM = tested on: CCRF-CEM
NCI-H226 = tested on: NCI-H226
HOP-62 = tested on: HOP-62
HT-29 = tested on: HT-29
RPMI-8226 = tested on: RPMI-8226
Hs-578T = tested on: Hs-578T
OVCAR-3 = tested on: OVCAR-3
NCI/ADR-RES = tested on: NCI/ADR-RES
A498 = tested on: A498
T47D = tested on: T47D
OVCAR-4 = tested on: OVCAR-4
KM12 = tested on: KM12
NCI-H522 = tested on: NCI-H522
SK-MEL-5 = tested on: SK-MEL-5
HOP-92 = tested on: HOP-92
TK-10 = tested on: TK-10
RXF 393 = tested on: RXF 393
IGROV-1 = tested on: IGROV-1
LOX IMVI = tested on: LOX IMVI
DU-145 = tested on: DU-145

CCOc1ccc(N/C(=C(/C(Cl)=C(/Cl)NCCN)[N+](=O)[O-])n2nnc3ccccc32)cc1
GI50 (MCF7): 35 µM (inactive) | GI50 (MDA-N): 58.1 µM (inactive) | GI50 (K562): 26.8 µM (inactive) | GI50 (SF-539): 18.2 µM (inactive) | GI50 (SK-OV-3): > 100 µM (inactive) | GI50 (SF-295): 70.5 µM (inactive) | GI50 (EKVX): 50.2 µM (inactive) | GI50 (NCI-H460): > 100 µM (inactive) | GI50 (SF-268): 13.6 µM (inactive) | GI50 (MDA-MB-435): 44.3 µM (inactive) | GI50 (SW-620): 6.79 µM (inactive) | GI50 (OVCAR-8): 15 µM (inactive) | GI50 (SN12C): 35.6 µM (inactive) | GI50 (BT-549): 28.4 µM (inactive) | GI50 (U-251): 35.8 µM (inactive) | GI50 (MDA-MB-231): 25.9 µM (inactive) | GI50 (Malme-3M): 14.5 µM (inactive) | GI50 (ACHN): 17.9 µM (inactive) | GI50 (SNB-75): 46.8 µM (inactive) | GI50 (MOLT-4): 16.5 µM (inactive) | GI50 (UACC-257): > 100 µM (inactive) | GI50 (SNB-19): > 100 µM (inactive) | GI50 (OVCAR-5): 67.3 µM (inactive) | GI50 (UACC-62): 43.5 µM (inactive) | GI50 (A549): > 100 µM (inactive) | GI50 (CAKI-1): 17.2 µM (inactive) | GI50 (786-0): 31.8 µM (inactive) | GI50 (UO-31): 37.9 µM (inactive) | GI50 (NCI-H23): 32.5 µM (inactive) | GI50 (M14): 43.9 µM (inactive) | GI50 (COLO 205): 15.6 µM (inactive) | GI50 (PC-3): 28.8 µM (inactive) | GI50 (HCT-116): 24.3 µM (inactive) | GI50 (SK-MEL-28): 27.9 µM (inactive) | GI50 (HCC 2998): > 100 µM (inactive) | GI50 (SK-MEL-2): > 100 µM (inactive) | GI50 (HCT-15): 17.9 µM | GI50 (CCRF-CEM): 22.6 µM (inactive) | GI50 (NCI-H226): 86.1 µM (inactive) | GI50 (HOP-62): 90.8 µM (inactive) | GI50 (HT-29): 33.3 µM (inactive) | GI50 (RPMI-8226): 30.9 µM (inactive) | GI50 (Hs-578T): 27.5 µM (inactive) | GI50 (OVCAR-3): 13 µM (inactive) | GI50 (NCI/ADR-RES): 49.5 µM (inactive) | GI50 (A498): 56.8 µM (inactive) | GI50 (T47D): 32.3 µM (inactive) | GI50 (OVCAR-4): 30.6 µM (inactive) | GI50 (KM12): 30.8 µM (inactive)

CC(C)N1C=[N+](C(C)C)CC1
GI50 (MCF7): > 100 µM (inactive) | GI50 (MDA-N): > 100 µM (inactive) | GI50 (K562): > 100 µM (inactive) | GI50 (SF-539): > 100 µM (inactive) | GI50 (SK-OV-3): > 100 µM (inactive) | GI50 (SF-295): > 100 µM (inactive) | GI50 (EKVX): > 100 µM (inactive) | GI50 (NCI-H460): > 100 µM (inactive) | GI50 (SF-268): > 100 µM (inactive) | GI50 (NCI-H522): > 100 µM (inactive) | GI50 (MDA-MB-435): > 100 µM (inactive) | GI50 (SW-620): > 100 µM (inactive) | GI50 (OVCAR-8): > 100 µM (inactive) | GI50 (SN12C): > 100 µM (inactive) | GI50 (SK-MEL-5): > 100 µM (inactive) | GI50 (BT-549): > 100 µM (inactive) | GI50 (U-251): > 100 µM (inactive) | GI50 (MDA-MB-231): > 100 µM (inactive) | GI50 (Malme-3M): > 100 µM (inactive) | GI50 (ACHN): > 100 µM (inactive) | GI50 (SNB-75): > 100 µM (inactive) | GI50 (UACC-257): > 100 µM (inactive) | GI50 (SNB-19): > 100 µM (inactive) | GI50 (HOP-92): > 100 µM (inactive) | GI50 (OVCAR-5): > 100 µM (inactive) | GI50 (A549): > 100 µM (inactive) | GI50 (CAKI-1): > 100 µM (inactive) | GI50 (786-0): > 100 µM (inactive) | GI50 (TK-10): > 100 µM (inactive) | GI50 (RXF 393): > 100 µM (inactive) | GI50 (UO-31): > 100 µM (inactive) | GI50 (NCI-H23): > 100 µM (inactive) | GI50 (IGROV-1): > 100 µM (inactive) | GI50 (LOX IMVI): > 100 µM (inactive) | GI50 (M14): > 100 µM (inactive) | GI50 (COLO 205): > 100 µM (inactive) | GI50 (PC-3): > 100 µM (inactive) | GI50 (HCT-116): > 100 µM (inactive) | GI50 (SK-MEL-28): > 100 µM (inactive) | GI50 (HCC 2998): > 100 µM (inactive) | GI50 (SK-MEL-2): > 100 µM (inactive) | GI50 (HCT-15): > 100 µM | GI50 (CCRF-CEM): > 100 µM (inactive) | GI50 (NCI-H226): > 100 µM (inactive) | GI50 (HOP-62): > 100 µM (inactive) | GI50 (HT-29): > 100 µM (inactive) | GI50 (RPMI-8226): > 100 µM (inactive) | GI50 (Hs-578T): > 100 µM (inactive) | GI50 (OVCAR-3): > 100 µM (inactive) | GI50 (NCI/ADR-RES): > 100 µM (inactive) | GI50 (A498): > 100 µM (inactive) | GI50 (T47D): > 100 µM (inactive) | GI50 (OVCAR-4): > 100 µM (inactive) | GI50 (KM12): > 100 µM (inactive) | GI50 (DU-145): > 100 µM (inactive)
